The values that follow come from PubChem BioAssay (NCI).

Test systems include SK-MEL-28 melanoma; SF-539 CNS; TK-10 renal; KM12 colon; HL-60(TB) leukemia; OVCAR-5 ovarian; SW-620 colon; MDA-MB-435; SK-OV-3 ovarian; NCI-H522 lung.
Common to all, as to assay: DTP human tumour cell line panel, 48 h

Where “and” joins values, the source holds several entries; their conditions need not be identical. Identical values can stand only once.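 Step 1: Grow cells in 96-well plates. Step 2: Expose to compound for 48 hours at 5 concentrations. Step 3: Interpolate endpoints linearly; if unreached, use highest concentration. GI50 = concentration required for 50% inhibition of growth. TGI is the concentration that stops growth completely.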

In general, GI50 refers to the concentration giving 50% growth inhibition. The term TGI denotes the concentration at which net growth stops. With `CCCC[N+](CCCC)=c1ccc2nc3c(C)cc(N(CC)CC)cc3sc-2c1`, the GI50 in the experiment on SK-MEL-28 melanoma is 0.613 µM; in the experiment on SF-539 CNS, 0.192 µM; in the experiment with TK-10 renal, 0.102 µM; in the experiment on KM12 colon, 0.113 µM; with HL-60(TB) leukemia it was 0.0995 µM; in the experiment with OVCAR-5 ovarian it was 0.349 µM. Further, the GI50 in the experiment on SW-620 colon was 0.245 µM; with MDA-MB-435 it was 0.205 µM; in the experiment on SK-OV-3 ovarian, 0.28 µM. For the same molecule, the TGI in the experiment with SK-MEL-28 melanoma stood at 2.03 µM; in the experiment on SF-539 CNS it was 1.14 µM; in the experiment on TK-10 renal it was 1.58 µM; with KM12 colon, 1.34 µM; in the experiment with HL-60(TB) leukemia, 0.773 µM; in the experiment on OVCAR-5 ovarian it was 1.61 µM. The results for the TGI with SW-620 colon, in the experiment with MDA-MB-435 and in the experiment with SK-OV-3 ovarian were 1.58 µM, 1.2 µM and 1.05 µM, respectively.

As for `Cc1ccc(C)c(NC(=O)NCc2ccc(Cl)cc2)c1`, the TGI with SK-MEL-28 melanoma is over 100 µM; with SF-539 CNS, over 100 µM; in the experiment with TK-10 renal it was 69.8 µM; in the experiment on KM12 colon, over 100 µM; with HL-60(TB) leukemia, over 100 µM; with NCI-H522 lung it was 97.3 µM. Besides, the TGI in the experiment with OVCAR-5 ovarian is over 100 µM; in the experiment with SW-620 colon, over 100 µM; in the experiment on MDA-MB-435, over 100 µM; in the experiment with SK-OV-3 ovarian it was 52.7 µM.

Regarding `O=C1C2=Nc3ccccc3C(O)N2c2ccccc21` (stereo not drawn), the TGI with SK-MEL-28 melanoma is over 68.7 µM; in the experiment on SF-539 CNS, over 100 µM; in the experiment on TK-10 renal, over 100 µM; with KM12 colon, over 100 µM; in the experiment with HL-60(TB) leukemia, 34.2 µM; in the experiment on NCI-H522 lung, 32.6 µM. The TGI is over 100 µM in the experiment on OVCAR-5 ovarian, over 100 µM in the experiment on SW-620 colon, 6.29 µM with MDA-MB-435 and over 100 µM in the experiment on SK-OV-3 ovarian.

Consider `Oc1c(CN2CCCC2)cc(COCc2ccc(Br)cc2)c2cccnc12`, for which the GI50 with SK-MEL-28 melanoma is 1.16 µM; in the experiment with SF-539 CNS, 1.11 µM; with TK-10 renal, 0.474 µM; with KM12 colon it was 0.621 µM; with HL-60(TB) leukemia, 0.355 µM; in the experiment with NCI-H522 lung it was 0.297 µM. For the same molecule, the GI50 with OVCAR-5 ovarian is 2.87 µM; in the experiment with SW-620 colon, 0.574 µM; in the experiment with MDA-MB-435, 1.49 µM; in the experiment with SK-OV-3 ovarian it was 0.594 µM. Besides, the TGI with SK-MEL-28 melanoma is 6.31 µM; in the experiment with SF-539 CNS, 2.85 µM; with TK-10 renal, 10.3 µM; in the experiment on KM12 colon, 11.3 µM; with HL-60(TB) leukemia, 1.43 µM; in the experiment with NCI-H522 lung, 1.17 µM. For the same molecule, the TGI in the experiment on OVCAR-5 ovarian came to 13.6 µM; with SW-620 colon it was 7.21 µM; with MDA-MB-435 it was 14.4 µM; in the experiment on SK-OV-3 ovarian it was 2.84 µM.

As for `Oc1ccc(O)c(-c2cc(-c3ccccc3)nn2-c2ccccc2)c1`, the GI50 was 40.8 µM with SK-MEL-28 melanoma; 14 µM with TK-10 renal; 19.6 µM with KM12 colon; 24.9 µM in the experiment on HL-60(TB) leukemia; 31 µM in the experiment with NCI-H522 lung; 10.6 µM in the experiment with OVCAR-5 ovarian. The GI50 in the experiment with SW-620 colon was 26 µM; with MDA-MB-435, 18.4 µM. Moreover, the TGI is over 100 µM with SK-MEL-28 melanoma; 71 µM in the experiment with TK-10 renal; over 100 µM in the experiment with KM12 colon; over 100 µM with HL-60(TB) leukemia; over 100 µM with NCI-H522 lung; 27 µM in the experiment on OVCAR-5 ovarian. In addition, the TGI in the experiment on SW-620 colon and in the experiment on MDA-MB-435 was over 100 µM each time.

As for `CC(=O)OCC(=O)O[C@@H]1C[C@]2(C(C)C)O[C@@]1(C)[C@@H]1CC[C@@H](C)[C@H]1[C@@H]2OC(=O)/C=C/c1ccccc1`, the GI50 with SK-MEL-28 melanoma was 22.3 µM; with SF-539 CNS, 28.2 µM; in the experiment with TK-10 renal it was 15.5 µM; in the experiment on KM12 colon, 26.7 µM; in the experiment on HL-60(TB) leukemia, 15 µM; with NCI-H522 lung it was 17.9 µM. The GI50 is 15.5 µM in the experiment on OVCAR-5 ovarian, 31 µM in the experiment on SW-620 colon, 22 µM with MDA-MB-435 and 24.5 µM in the experiment with SK-OV-3 ovarian. Also, the TGI in the experiment with SK-MEL-28 melanoma is 83.4 µM; in the experiment with SF-539 CNS it was over 100 µM; in the experiment on TK-10 renal it was 39.7 µM; in the experiment on KM12 colon it was over 100 µM; in the experiment with HL-60(TB) leukemia, 62 µM; with NCI-H522 lung it was 47.8 µM. Further, the TGI in the experiment on OVCAR-5 ovarian is 33.6 µM; in the experiment with SW-620 colon, over 100 µM; with MDA-MB-435, 59.7 µM; with SK-OV-3 ovarian, over 97.2 µM.

In the case of `Cn1c(O)c(C(/C=C/c2ccccc2)=NCCN=C(/C=C/c2ccccc2)c2c(O)n(C)c(=O)n(C)c2=O)c(=O)n(C)c1=O`, the GI50 in the experiment with SK-MEL-28 melanoma was 10.2 µM; in the experiment with SF-539 CNS, 13.7 µM; in the experiment on TK-10 renal it was 23.7 µM; in the experiment on KM12 colon it was 14.1 µM; in the experiment with HL-60(TB) leukemia it was 9.14 µM; in the experiment on NCI-H522 lung, 16.8 µM. The GI50 was 16.8 µM with OVCAR-5 ovarian, 15.5 µM in the experiment with SW-620 colon, 18 µM in the experiment on MDA-MB-435 and 19.9 µM in the experiment with SK-OV-3 ovarian. The TGI in the experiment with SK-MEL-28 melanoma is 33.6 µM; in the experiment on SF-539 CNS, 33.3 µM; in the experiment on TK-10 renal, over 50 µM; in the experiment with KM12 colon, over 50 µM; with HL-60(TB) leukemia it was 27.4 µM; in the experiment with NCI-H522 lung, over 50 µM. Further, the TGI is over 50 µM in the experiment on OVCAR-5 ovarian, 34.2 µM in the experiment on SW-620 colon, over 50 µM in the experiment on MDA-MB-435 and over 50 µM in the experiment on SK-OV-3 ovarian.

Turning to `Cc1cnc(/C=N\NC(N)=S)c2cccc(N)c12`, the TGI was over 100 µM in the experiment with SK-MEL-28 melanoma; 3.7 µM and > 27.7 µM with SF-539 CNS; over 100 µM with TK-10 renal; over 100 µM with KM12 colon; 3.18 µM and 2.83 µM in the experiment with HL-60(TB) leukemia; over 100 µM in the experiment with NCI-H522 lung. The TGI in the experiment with OVCAR-5 ovarian, in the experiment with SW-620 colon, in the experiment on MDA-MB-435 and in the experiment on SK-OV-3 ovarian was over 100 µM throughout. The GI50 is 0.596 µM in the experiment with SF-539 CNS; 6.89 µM with TK-10 renal; 4.82 µM in the experiment on KM12 colon; 0.752 µM in the experiment with HL-60(TB) leukemia; 3.87 µM with NCI-H522 lung; over 21.3 µM in the experiment on OVCAR-5 ovarian. Moreover, the GI50 is 3.78 µM with SW-620 colon, 3.9 µM in the experiment on MDA-MB-435 and 3.14 µM in the experiment on SK-OV-3 ovarian.
